Assay results: the supplement of paper PMC10307832

Tests used:
Assay in all cases: relative viability (nuclei count vs DMSO), 5 days (fraction); higher = more cells survive
IPA-3 + Vorinostat = compound: C1=CC=C2C(=C1)C=CC(=C2SSC3=C(C=CC4=CC=CC=C43)O)O [IPA-3] + O=C(CCCCCCC(=O)Nc1ccccc1)NO [Vorinostat] (partner 1 µM)
In short: (§1)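 The day after seeding in 1536-well plates, lung cancer cell lines were treated by pin tool with a single drug, or with a fixed anchor-drug dose together with five library-drug doses (not always all listed) in √10 steps. After 5 days, a combined fix-and-stain solution (final 0.05% Triton X-100, 1% formaldehyde, 1 ug/ml Hoechst) was added. Nuclei counted on 4× images gave relative viability as treated counts over vehicle counts, reported as the median of duplicate plates.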

RAF265 + Phenformin = compound: Cn1c(Nc2ccc(C(F)(F)F)cc2)nc2cc(Oc3ccnc(-c4ncc(C(F)(F)F)[nH]4)c3)ccc21 [RAF265] + N=C(N)NC(=N)NCCc1ccccc1 [Phenformin] (partner 250 µM)
In short: as §1

IPA-3 + Tozasertib = compound: C1=CC=C2C(=C1)C=CC(=C2SSC3=C(C=CC4=CC=CC=C43)O)O [IPA-3] + Cc1cc(Nc2cc(N3CCN(C)CC3)nc(Sc3ccc(NC(=O)C4CC4)cc3)n2)n[nH]1 [Tozasertib] (partner 0.1 µM)
In short: as §1

Doramapimod + Linsitinib = compound: Cc1ccc(-n2nc(C(C)(C)C)cc2NC(=O)Nc2ccc(OCCN3CCOCC3)c3ccccc23)cc1 [Doramapimod] + C[C@]1(O)C[C@@H](c2nc(-c3ccc4ccc(-c5ccccc5)nc4c3)c3c(N)nccn32)C1 [Linsitinib] (partner 1 µM)
In short: as §1

Cell Line	relative viability (IPA-3 + Vorinostat; first compound 0.2 µM)	relative viability (IPA-3 + Vorinostat; first compound 0.6325 µM)	relative viability (IPA-3 + Vorinostat; first compound 2 µM)	relative viability (IPA-3 + Vorinostat; first compound 6.325 µM)	relative viability (IPA-3 + Vorinostat; first compound 20 µM)	relative viability (RAF265 + Phenformin; first compound 0.01 µM)	relative viability (RAF265 + Phenformin; first compound 0.03162 µM)	relative viability (RAF265 + Phenformin; first compound 0.1 µM)	relative viability (RAF265 + Phenformin; first compound 0.3162 µM)	relative viability (RAF265 + Phenformin; first compound 1 µM)	relative viability (IPA-3 + Tozasertib; first compound 0.2 µM)	relative viability (IPA-3 + Tozasertib; first compound 0.6325 µM)	relative viability (IPA-3 + Tozasertib; first compound 2 µM)	relative viability (IPA-3 + Tozasertib; first compound 6.325 µM)	relative viability (IPA-3 + Tozasertib; first compound 20 µM)	relative viability (Doramapimod + Linsitinib; first compound 0.02 µM)	relative viability (Doramapimod + Linsitinib; first compound 0.06325 µM)	relative viability (Doramapimod + Linsitinib; first compound 0.2 µM)	relative viability (Doramapimod + Linsitinib; first compound 0.6325 µM)	relative viability (Doramapimod + Linsitinib; first compound 2 µM)
201T	1.04	0.931	1.01	0.926	1.13	0.392	0.422	0.453	0.434	0.38	0.99	1	0.908	0.922	1.06	1.05	1.07	0.971	1.03	0.958
A549						0.148	0.123	0.201	0.0774	0.0726						0.551	0.532	0.567	0.794	0.523
A-427	0.858	0.88	0.9	0.918	0.853	0.361	0.266	0.307	0.204	0.124	0.18	0.242	0.201	0.224	0.248	1.17	1.21	1.24		1.16
ABC-1	1.2	1.31	1.11	1.12	1.13	0.21	0.223	0.228	0.187	0.21	0.18	0.183	0.19	0.188	0.185	0.876	0.944	0.744	0.942	0.806
BEN	0.594	0.59	0.586	0.686	0.568	0.276	0.267	0.274	0.263	0.239	0.528	0.582	0.48	0.5	0.588	0.834	0.893	0.906	0.769	0.854
CAL-12T	1	0.58	0.773	0.762	1.13	0.581	0.521	0.426	0.516	0.363	0.371	0.301	0.384	0.343	0.297	0.806	0.804	0.745	0.851	0.627
COR-L23	0.561	0.471	0.416	0.232	0.307	0.507	0.395	0.344	0.315	0.258	0.197	0.201	0.344	0.25	0.165	0.962	0.917	0.827	0.933	0.931
Calu-6																1.02	0.978	0.942	1.04	0.966
ChaGo-K-1	0.968	0.699	0.757	0.864	0.875	0.519	0.511	0.392	0.405	0.382	0.228	0.236	0.231	0.221	0.251					
EBC-1																0.924	0.811	0.826	0.937	0.817
IA-LM	1.06	0.922	0.925	0.891	1.15											0.498	0.549	0.701	0.587	0.731
NCI-H522	0.879	0.897	0.854	0.894	1.06	0.677	0.648	0.655	0.33	0.569	0.596	0.535	0.72	0.621	0.565					
NCI-H1299																1	1.04	1.01	1.06	0.985
NCI-H1563						0.676	0.674	0.66	0.64	0.623						1.17	1.23	1.25	1.25	1.2
NCI-H1623						0.652	0.578	0.646		0.388	0.418	0.433	0.432	0.47	0.433					
NCI-H1648	0.876	0.484	0.589	0.34	0.399						0.753	0.545	0.646	0.391	0.482					
NCI-H1650	1.02	0.47	0.531	0.555	0.729	0.55	0.438	0.49	0.333	0.361	0.485	0.414	0.489	0.421	0.517					
NCI-H1703																0.637	0.601	0.68	0.908	0.532
NCI-H1792						0.394	0.182	0.186	0.0818	0.0945						0.434	0.434	0.536	0.615	0.351
NCI-H2170	0.87	0.997	1.04	0.768	0.901	0.408	0.38	0.453	0.319	0.366	0.822	0.777	0.675	0.644	0.769					
NCI-H2342	0.837	1.03	0.851	0.91	0.89	0.502	0.617	0.679	0.468	0.549	0.526	0.505	0.6	0.57	0.596					
SW 900	0.609	0.531	0.641	0.654	0.481	0.73	0.491	0.665	0.283	0.293	0.56	0.53	0.496	0.566	0.56					
